Measurements as given in US7553864B2, “Compounds for the treatment of inflammatory disorders and microbial diseases” (Schering Corporation, priority 2005, dated 2009).

The compounds below were run against T1, ADMP (ADAMTS-4-5) (Homo sapiens, UniProt O75173) (assay: ADMP activity assay (procedures of WO00/05256)). Conditions: not given.
T1 construct: purchased Calbiochem PF113
T1 sequence (O75173 213-837): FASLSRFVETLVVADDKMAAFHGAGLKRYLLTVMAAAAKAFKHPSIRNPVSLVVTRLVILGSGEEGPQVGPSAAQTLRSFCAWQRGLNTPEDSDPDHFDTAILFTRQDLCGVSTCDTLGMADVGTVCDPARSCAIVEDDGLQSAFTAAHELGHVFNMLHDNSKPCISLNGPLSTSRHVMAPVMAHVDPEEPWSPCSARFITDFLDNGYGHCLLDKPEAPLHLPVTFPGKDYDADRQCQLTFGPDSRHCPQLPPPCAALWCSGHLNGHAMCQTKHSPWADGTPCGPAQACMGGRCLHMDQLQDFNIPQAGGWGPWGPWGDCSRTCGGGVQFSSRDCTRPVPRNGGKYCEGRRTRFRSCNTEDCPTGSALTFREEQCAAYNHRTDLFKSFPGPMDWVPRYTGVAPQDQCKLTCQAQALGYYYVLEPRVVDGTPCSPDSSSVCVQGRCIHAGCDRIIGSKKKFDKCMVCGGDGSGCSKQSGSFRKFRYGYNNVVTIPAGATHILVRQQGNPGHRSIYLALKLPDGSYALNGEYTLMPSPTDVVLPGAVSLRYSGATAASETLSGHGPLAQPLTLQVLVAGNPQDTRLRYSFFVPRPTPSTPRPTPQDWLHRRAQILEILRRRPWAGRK
Type: biochemical
Source text: The procedures of International Patent Publication WO00/05256 (published Feb. 3, 2000) were followed for detection of ADMP Activity and for measuring the IC50 of the compounds of the present invention. This was indicative of activity against a desintgrin and metallopropeinase thrombo spondin 4 and 5 (ADAMTS-4-5).
The enzyme was purchased commercially from Calbiochem (Cat# PF113) and the peptide substrate described in the patent was custom-ordered from AnaSpec.

| Compound | IC50 |
| --- | --- |
| CC(=O)C1(c2ccccc2)CCN(C(=O)[C@H](O)[C@@H](O)C(=O)N[C@@H](C)c2ccc(Br)cc2)CC1 [Compound 133] | < 0.25 µM |
| C[C@H](NC(=O)[C@H](O)[C@@H](O)C(=O)N1CCC(N2C(=O)Cc3ccccc32)CC1)c1ccc(Br)cc1 [Compound 165] | 1 to 5 µM |

Same assay, conditions: read-out: IC50 (ADMP inhibition)

| Compound | IC50 |
| --- | --- |
| COc1ccc(N2CCN(C(=O)[C@H](O)[C@@H](O)C(=O)N[C@@H](C)c3ccc(Br)cc3)CC2)cc1 [Compound 130] | 0.17 µM |
| C[C@H](NC(=O)[C@H](O)[C@@H](O)C(=O)N1Cc2ccccc2C[C@@H]1CO)c1ccc(Br)cc1 [Compound 138] | 0.19 µM |
| COc1cccc(N2CCN(C(=O)[C@H](O)[C@@H](O)C(=O)N[C@@H](C)c3ccc(Br)cc3)CC2)c1 [Compound 143] | 0.09 µM |
| C[C@H](NC(=O)[C@H](O)[C@@H](O)C(=O)N1CCC(S(=O)(=O)c2ccccc2)CC1)c1ccc(Br)cc1 [Compound 148] | 0.047 µM |
| C[C@H](NC(=O)[C@H](O)[C@@H](O)C(=O)N1CCC(Oc2ccccc2)CC1)c1ccc(Br)cc1 [Compound 149] | 0.09 µM |
| C[C@H](NC(=O)[C@H](O)[C@@H](O)C(=O)N1CCCC1c1nc2ccccc2s1)c1ccc(Br)cc1 (some centres unmarked) [Compound 160] | 0.16 µM |
| O=C(NCc1ccc(I)cc1)[C@H](O)[C@@H](O)C(=O)N1CCc2ccccc2C1 [Compound 204] | 0.09 µM |
| COc1cc2c(cc1OC)CN(C(=O)[C@H](O)[C@@H](O)C(=O)N[C@@H](C)c1ccc(Br)cc1)CC2 [Compound 207] | 0.096 µM |

Same assay, conditions: read-out: IC50 rating (ADMP inhibitory activity)

| Compound | IC50 |
| --- | --- |
| CN(C(=O)[C@H](O)[C@@H](O)C(=O)NCc1ccc(C(F)(F)F)cc1)C1CCCCC1 [Compound 125] | 0.25 to 1 µM |
| O=C(NCc1ccc(C(F)(F)F)cc1)[C@H](O)[C@@H](O)C(=O)N1CCN(c2ccc(F)cc2)CC1 [Compound 126] | 0.25 to 1 µM |
| CN(C)CCN(C)C(=O)[C@H](O)[C@@H](O)C(=O)NCc1ccc(C(F)(F)F)cc1 [Compound 127] | > 5 µM |
| COc1ccc(N2CCN(C(=O)[C@H](O)[C@@H](O)C(=O)N[C@@H](C)c3ccc(Br)cc3)CC2)cc1 [Compound 130] | < 0.25 µM |
| COc1ccc(N2CCN(C(=O)[C@H](O)[C@@H](O)C(=O)NCCc3cccc(Cl)c3)CC2)cc1 [Compound 131] | 0.25 to 1 µM |
| COc1ccc(N2CCN(C(=O)[C@H](O)[C@@H](O)C(=O)NCc3ccc(Cl)cc3)CC2)cc1 [Compound 132] | 0.25 to 1 µM |
| COc1ccc(CNC(=O)[C@H](O)[C@@H](O)C(=O)N2CCC[C@H]2CN2CCCC2)cc1 [Compound 134] | 0.25 to 1 µM |
| C[C@H](NC(=O)[C@H](O)[C@@H](O)C(=O)N1Cc2ccccc2C[C@@H]1CO)c1ccc(Br)cc1 [Compound 138] | < 0.25 µM |
| C[C@H](NC(=O)[C@H](O)[C@@H](O)C(=O)N(C)Cc1cc(Cl)cc(Cl)c1)c1ccc(Br)cc1 [Compound 139] | 0.25 to 1 µM |
| Cc1ccc(N2CCN(C(=O)[C@H](O)[C@@H](O)C(=O)N[C@@H](C)c3ccc(Br)cc3)CC2)cc1C [Compound 142] | 0.25 to 1 µM |
| COc1cccc(N2CCN(C(=O)[C@H](O)[C@@H](O)C(=O)N[C@@H](C)c3ccc(Br)cc3)CC2)c1 [Compound 143] | < 0.25 µM |
| C[C@H](NC(=O)[C@H](O)[C@@H](O)C(=O)N1CCN(c2ccc(F)cc2F)CC1)c1ccc(Br)cc1 [Compound 144] | < 0.25 µM |
| C[C@H](NC(=O)[C@H](O)[C@@H](O)C(=O)N1CCC(S(=O)(=O)c2ccccc2)CC1)c1ccc(Br)cc1 [Compound 148] | < 0.25 µM |
| C[C@H](NC(=O)[C@H](O)[C@@H](O)C(=O)N1CCC(Oc2ccccc2)CC1)c1ccc(Br)cc1 [Compound 149] | < 0.25 µM |
| C[C@H](NC(=O)[C@H](O)[C@@H](O)C(=O)N1CCN(c2ccc(O)cc2)CC1)c1ccc(Br)cc1 [Compound 150] | 1 to 5 µM |
| C[C@H](NC(=O)[C@H](O)[C@@H](O)C(=O)N1CCC(c2nc3ccccc3s2)CC1)c1ccc(Br)cc1 [Compound 151] | < 0.25 µM |
| C[C@H](NC(=O)[C@H](O)[C@@H](O)C(=O)N1CCC2(CC1)C(=O)Nc1ccccc12)c1ccc(Br)cc1 [Compound 152] | 1 to 5 µM |
| C[C@H](NC(=O)[C@H](O)[C@@H](O)C(=O)N1CCC2(CCCNC2)CC1)c1ccc(Br)cc1 [Compound 158] | > 5 µM |
| C[C@H](NC(=O)[C@H](O)[C@@H](O)C(=O)N1CCCC1c1nc2ccccc2s1)c1ccc(Br)cc1 (some centres unmarked) [Compound 160] | < 0.25 µM |
| COc1ccccc1N1CCN(C(=O)[C@H](O)[C@@H](O)C(=O)N[C@@H](C)c2ccc(Br)cc2)CC1 [Compound 164] | 0.25 to 1 µM |
| C[C@H](NC(=O)[C@H](O)[C@@H](O)C(=O)N1CCc2c([nH]c3ccccc23)C1)c1ccc(Br)cc1 [Compound 169] | 0.25 to 1 µM |
| C[C@H](NC(=O)[C@H](O)[C@@H](O)C(=O)N1CCCC1c1ccccc1)c1ccc(Br)cc1 (some centres unmarked) [Compound 172] | 0.25 to 1 µM |
| C[C@H](NC(=O)[C@H](O)[C@@H](O)C(=O)N[C@@H]1c2ccccc2C[C@@H]1O)c1ccc(Br)cc1 [Compound 173] | > 5 µM |
| C[C@H](NC(=O)[C@H](O)[C@@H](O)C(=O)N[C@H]1c2ccccc2C[C@H]1O)c1ccc(Br)cc1 [Compound 174] | > 5 µM |
| C[C@H](NC(=O)[C@H](O)[C@@H](O)C(=O)N1Cc2ccccc2C1)c1ccc(Br)cc1 [Compound 175] | 0.25 to 1 µM |

| Compound | IC50 |
| --- | --- |
| C[C@H](NC(=O)[C@H](O)[C@@H](O)C(=O)N(C)CCc1ccccc1)c1ccc(Br)cc1 [Compound 176] | 0.25 to 1 µM |
| O=C(NCc1ccc(C(F)(F)F)cc1)[C@H](O)[C@@H](O)C(=O)N1CCc2ccccc2C1 [Compound 180] | 0.25 to 1 µM |
| O=C(NCc1cccc(I)c1)[C@H](O)[C@@H](O)C(=O)N1CCc2ccccc2C1 [Compound 181] | > 5 µM |
| O=C(NCc1ccc(Br)cc1)[C@H](O)[C@@H](O)C(=O)N1CCc2ccccc2C1 [Compound 184] | 0.25 to 1 µM |
| O=C(NCc1cccc(Br)c1)[C@@H](O)[C@H](O)C(=O)N1CCc2ccccc2C1 [Compound 185] | > 5 µM |
| CC(NC(=O)[C@H](O)[C@@H](O)C(=O)N1CCc2ccccc2C1)c1ccc(S(C)(=O)=O)cc1 (some centres unmarked) [Compound 186] | > 5 µM |
| C[C@@H](c1ccc(Br)cc1)N(C)C(=O)[C@@H](O)[C@H](O)C(=O)N1CCc2ccccc2C1 [Compound 187] | > 5 µM |
| CN1CCC(N(C)C(=O)[C@@H](O)[C@H](O)C(=O)NCc2ccc(I)cc2)CC1 [Compound 189] | > 5 µM |
| C[C@H](NC(=O)[C@H](O)[C@@H](O)C(=O)N1CCc2ccccc2C1)c1ccc(-c2cccc(N3CCCC3)c2)cc1 [Compound 196] | < 0.25 µM |
| C[C@H](NC(=O)[C@H](O)[C@@H](O)C(=O)N1CCc2ccccc2C1)c1ccc(-c2ccc(O)cc2)cc1 [Compound 200] | < 0.25 µM |
| CC(NC(=O)[C@H](O)[C@@H](O)C(=O)N1CCc2ccccc2C1)c1ccc(C(F)(F)F)cc1 (some centres unmarked) [Compound 201] | 0.25 to 1 µM |
| O=C(NCc1ccc(I)cc1)[C@H](O)[C@@H](O)C(=O)N1CCc2ccccc2C1 [Compound 204] | < 0.25 µM |
| C[C@H](NC(=O)[C@H](O)[C@@H](O)C(=O)N(C)C1Cc2ccccc2C1)c1ccc(Br)cc1 [Compound 206] | 0.25 to 1 µM |
| COc1cc2c(cc1OC)CN(C(=O)[C@H](O)[C@@H](O)C(=O)N[C@@H](C)c1ccc(Br)cc1)CC2 [Compound 207] | < 0.25 µM |
| C[C@H](NC(=O)[C@H](O)[C@@H](O)C(=O)N1CCCC1c1cccc(Cl)c1)c1ccc(Br)cc1 (some centres unmarked) [Compound 209] | < 0.25 µM |
| O=C(NCc1cccc(Br)c1)C(O)C(O)C(=O)N1CCc2ccccc2C1 (centres unmarked) [Compound 211] | > 5 µM |
| O=C(NCc1cccc(I)c1)C(O)C(O)C(=O)N1CCc2ccccc2C1 (centres unmarked) [Compound 212] | > 5 µM |
| C[C@H](NC(=O)C(O)C(O)C(=O)N1CCN(c2ccc(O)cc2)CC1)c1ccc(Br)cc1 (some centres unmarked) [Compound 215] | 1 to 5 µM |
| C[C@H](NC(=O)C(O)C(O)C(=O)N1Cc2ccccc2C1)c1ccc(O)cc1 (some centres unmarked) [Compound 216] | < 0.25 µM |
| C[C@H](NC(=O)C(O)C(O)C(=O)N1Cc2ccccc2C1)c1cccc(O)c1 (some centres unmarked) [Compound 217] | 1 to 5 µM |
| C[C@H](NC(=O)C(O)C(O)C(=O)N1CCc2ccccc2C1)c1cccc(Br)c1 (some centres unmarked) [Compound 218] | > 5 µM |
| C[C@H](NC(=O)C(O)C(O)C(=O)N1CCc2ccccc2C1)c1cccc(I)c1 (some centres unmarked) [Compound 219] | 1 to 5 µM |
| C[C@H](NC(=O)C(O)C(O)C(=O)N1CCc2ccccc2C1)c1ccc(C(F)(F)F)cc1F (some centres unmarked) [Compound 220] | > 5 µM |
| O=C(NCCCCCn1c(C(F)(F)F)nc2ccccc21)C(O)C(O)C(=O)N1CCc2ccccc2C1 (centres unmarked) [Compound 221] | > 5 µM |
